25 compounds from patent US10118902B2 (Sanford Burnham Prebys Medical Discovery Institute, priority 2014, dated 2018) can be followed below.

Each structure is given as a SMILES string.

Sequence of neurotensin receptor 1 (NTR1) (P30989 whole entry, species assumed): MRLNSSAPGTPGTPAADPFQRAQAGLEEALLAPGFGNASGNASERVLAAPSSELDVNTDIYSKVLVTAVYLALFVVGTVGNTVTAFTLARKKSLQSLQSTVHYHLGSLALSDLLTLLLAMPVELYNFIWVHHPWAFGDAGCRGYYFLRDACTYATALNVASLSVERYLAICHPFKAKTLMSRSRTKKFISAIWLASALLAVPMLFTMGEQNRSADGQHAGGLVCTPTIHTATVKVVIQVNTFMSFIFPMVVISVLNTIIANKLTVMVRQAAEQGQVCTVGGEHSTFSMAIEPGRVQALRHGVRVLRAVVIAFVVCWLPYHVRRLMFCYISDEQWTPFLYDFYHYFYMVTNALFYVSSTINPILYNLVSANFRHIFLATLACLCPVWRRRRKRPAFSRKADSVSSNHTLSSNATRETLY

The target of the assay is neurotensin receptor 1 (NTR1) (Homo sapiens (Human), UniProt P30989). The assay is described as follows: NTR1 dose response, high-content imaging beta-arrestin-GFP assay in NTR1-U2OS cells. It is filed as cell-based. As to conditions: read-out: EC50. The source says:
The cell lines utilized in the high-content imaging assays, which include the NTR1-, NTR2-, and GPR35-U2OS osteosarcomas, were obtained from the laboratory of Dr. Lawrence Barak at the Duke University Medical Center. The media used in the culture of the cell lines, as well as the assays themselves, consisted of Minimum Essential Medium (15-010-CM) and L-glutamine (25-005-CL) from Cellgro/Mediatech (Manassas, Va.), fetal bovine serum (SH30396.03) from Hyclone (Logan, Utah), penicillin-streptomycin solution (PS-20) from Omega Scientific in Tarzana, Calif., G418 (ant-gn-1) from Invivogen (San Diego, Calif.), and zeocin (R250-01) from Invitrogen (Carlsbad, Calif.). Cell lines were cultured in T225 tissue culture flasks (431082) supplied by Corning (Corning, N.Y.). Additional reagents employed include Dulbecco's Phosphate-Buffered Saline (DPBS) (21-031CV) from Cellgro/Mediatech, Trypsin-EDTA 0.05% (25300) from Invitrogen, paraformaldehyde (30528954) from Acros Organics (Geel, Belgium), Hoechst 33342 (H3570) from Invitrogen. The high-content assays were run in 1536-well plates (29326) supplied by Aurora Biotechnology (Poway, Calif.) and utilized aluminum plate seals (T592100) from E&K Scientific (Santa Clara, Calif.). […]
The high-content imaging based NTR1 primary screen in 1536-well format was utilized to assay the MLSMR library of chemical entities in the following manner. On day one, 4 uL of a cell suspension containing 350,000 NTR1-U2OS cells per mL is added to each well of a 1536-well assay plate. Cells are plated in MEM medium containing 2.5% Fetal Bovine Serum, 1% Penicillin/Streptomycin solution, 1% L-Glutamine, 400 ug/mL G418, and 200 ug/mL Zeocin. The assay plates are then incubated overnight at 37° C., under 5% CO2. Following the overnight incubation, a volume of 60 nL of the compounds at 2 mM in DMSO (final 20 μM, 1% DMSO) was transferred to columns 5-48 of the assay plates using a LabCyte Echo Liquid Handler. Next, 60 nL of DMSO were dispensed to columns 1-4, which served as the positive and neutral control wells. […] The assay plates were centrifuged on an Eppendorf 5810 centrifuge at 1000 rpm for 1 min to ensure even liquid levels in the wells of the assay plates. The assay plates were then returned to the incubator for 1 hour. Following the hour-long incubation at 37° C., the cells in each well were fixed with 4 uL of 6% paraformaldehyde added with a Multidrop Combi. The assay plates were centrifuged as before and incubated at room temperature for 1 hour. On the Kalypsys, plates were then aspirated down to 2.5 uL per well and washed twice with 11 uL per well of DPBS, followed by a final aspiration to 2.5 uL per well. On the Combi dispenser, 5 uL of 5 ug/mL Hoechst 33342 diluted in DPBS was added to each well of assay plates. The plates were again centrifuged as previously described, sealed, and incubated for at least 1 hour prior to being loaded on a PerkinElmer Opera QEHS.
Image acquisition was performed with a 45 plate capacity loader/stacker and the following settings: 40×0.6 NA air objective, acquisition camera set to 2-by-2 binning for an image size of 688 by 512 pixels, beta-arrestin-GFP acquired using 488 nm laser excitation and 540/75 nm emission filters, DAPI (nuclei) using 365 nm Xenon lamp excitation and 450/50 nm emission filters, 3 fields per well. Image analysis was performed using the Acapella Spot Detection Algorithm. For analysis settings and the metrics employed in the data analyses, please refer to supplemental information.
Compounds that were successfully confirmed in quadruplicate at 20 uM were then run in dose response in the primary assay. As with the single concentration hit confirmation, the assay was performed in an identical manner as the primary screen with the following modifications. […]
Regarding `COc1ccccc1C1CCN(c2nc(C3CC3)nc3ccc(N4CC[C@@H](N(C)C)C4)cc23)CC1` (stereo in doubt) [Example 91, (1-{2-cyclopropyl-4-[4-(2-methoxy-phenyl)-piperidin-1-yl]-quinazolin-6-yl}-pyrrolidin-3-yl)-dimethyl-amine], the EC50 was in the range of 2000 to 10000 nM.
`COc1ccccc1N[C@@H]1CCN(c2nc(C3CC3)nc3ccc(N(C)CCO)cc23)C1` (stereo in doubt) [Example 153, 2-({2-cyclopropyl-4-[3-(2-methoxy-phenylamino)-pyrrolidin-1-yl]-quinazolin-6-yl}-methyl-amino)-ethanol]: the EC50 was greater than 10000 nM.
The same measure for `COc1ccccc1C1CCN(c2nc(C3(F)CC3)nc3c(Cl)cc(N4CC[C@@H](O)C4)cc23)CC1` (stereo in doubt) [Example 202, 1-{8-Chloro-2-(1-fluoro-cyclopropyl)-4-[4-(2-methoxy-phenyl)-piperidin-1-yl]-quinazolin-6-yl}-pyrrolidin-3-ol]: 500 to 2000 nM; for `COc1ccccc1C1CCN(c2nc(C3(F)CC3)nc3c(Cl)cc(N4CC[C@H](O)C4)cc23)CC1` (stereo in doubt) [Example 203, 1-{8-Chloro-2-(1-fluoro-cyclopropyl)-4-[4-(2-methoxy-phenyl)-piperidin-1-yl]-quinazolin-6-yl}-pyrrolidin-3-ol]: 2000 to 10000 nM.
Under `CN(C)c1ccc2nc(C3CC3)nc(N3CCN(c4ccccc4N4CCC4)CC3)c2c1` [Example 1, {4-[4-(2-azetidin-1-yl-phenyl)-piperazin-1-yl]-2-cyclopropyl-quinazolin-6-yl}-dimethyl-amine] stands 500 to 2000 nM; under `CCN(C)c1ccc2nc(C3CC3)nc(N3CCN(c4ccccc4N4CCC4)CC3)c2c1` [Example 2, {4-[4-(2-azetidin-1-yl-phenyl)-piperazin-1-yl]-2-cyclopropyl-quinazolin-6-yl}-ethyl-methyl-amine], 500 to 2000 nM.
Under `CN(C)c1ccc2nc(C3CC3)nc(N3CCC(c4ccccc4N4CCC4)CC3)c2c1` [Example 3] stands greater than 10000 nM.
On to `CCN(C)c1ccc2nc(C3CC3)nc(N3CCC(c4ccccc4N4CCC4)CC3)c2c1` [Example 4, {4-[4-(2-azetidin-1-yl-phenyl)-piperidin-1-yl]-2-cyclopropyl-quinazolin-6-yl}-ethyl-methyl-amine], for which the EC50 is greater than 10000 nM.
The same measure for `CN(C)CCN(C)c1ccc2nc(C3CC3)nc(N3CCC(c4ccccc4N4CCC4)CC3)c2c1` [Example 5, N-{4-[4-(2-azetidin-1-yl-phenyl)-piperidin-1-yl]-2-cyclopropyl-quinazolin-6-yl}-N,N′,N′-trimethyl-ethane-1,2-diamine]: 2000 to 10000 nM; for `CN(CCO)c1ccc2nc(C3CC3)nc(N3CCC(c4ccccc4N4CCC4)CC3)c2c1` [Example 6, 2-({4-[4-(2-azetidin-1-yl-phenyl)-piperidin-1-yl]-2-cyclopropyl-quinazolin-6-yl}-methyl-amino)-ethanol]: 500 to 2000 nM; for `COCCN(C)c1ccc2nc(C3CC3)nc(N3CCC(c4ccccc4N4CCC4)CC3)c2c1` [Example 7, {4-[4-(2-azetidin-1-yl-phenyl)-piperidin-1-yl]-2-cyclopropyl-quinazolin-6-yl}-(2-methoxy-ethyl)-methyl-amine]: 2000 to 10000 nM.
The same measure for `CN(CCN1CCOCC1)c1ccc2nc(C3CC3)nc(N3CCC(c4ccccc4N4CCC4)CC3)c2c1` [Example 8, {4-[4-(2-azetidin-1-yl-phenyl)-piperidin-1-yl]-2-cyclopropyl-quinazolin-6-yl}-methyl-(2-morpholin-4-yl-ethyl)-amine]: 500 to 2000 nM.
The same measure for `CN(CCN1CCCC1)c1ccc2nc(C3CC3)nc(N3CCC(c4ccccc4N4CCC4)CC3)c2c1` [Example 9, {4-[4-(2-azetidin-1-yl-phenyl)-piperidin-1-yl]-2-cyclopropyl-quinazolin-6-yl}-methyl-(2-pyrrolidin-1-yl-ethyl)-amine]: greater than 10000 nM.
Turning to `CN(C)c1ccccc1C1CCN(c2nc(C3CC3)nc3ccc(N(C)CCO)cc23)CC1` [Example 10, 2-({2-cyclopropyl-4-[4-(2-dimethylamino-phenyl)-piperidin-1-yl]-quinazolin-6-yl}-methyl-amino)-ethanol], the EC50 is 2000 to 10000 nM.
The same measure for `COCCN(C)c1ccc2nc(C3CC3)nc(N3CCC(c4ccccc4N(C)C)CC3)c2c1` [Example 11, {2-cyclopropyl-4-[4-(2-dimethylamino-phenyl)-piperidin-1-yl]-quinazolin-6-yl}-(2-methoxy-ethyl)-methyl-amine]: 2000 to 10000 nM; for `CN(C)c1ccccc1C1CCN(c2nc(C3CC3)nc3ccc(N(C)CCN4CCOCC4)cc23)CC1` [Example 12, {2-Cyclopropyl-4-[4-(2-dimethylamino-phenyl)-piperidin-1-yl]-quinazolin-6-yl}-methyl-(2-morpholin-4-yl-ethyl)-amine]: 2000 to 10000 nM.
The same measure for `CN(C)c1ccccc1C1CCN(c2nc(C3CC3)nc3ccc(N(C)CCN4CCCC4)cc23)CC1` [Example 13, {2-cyclopropyl-4-[4-(2-dimethylamino-phenyl)-piperidin-1-yl]-quinazolin-6-yl}-methyl-(2-pyrrolidin-1-yl-ethyl)-amine]: 2000 to 10000 nM; for `CN(C)CCN(C)c1ccc2nc(C3CC3)nc(N3CCC(c4ccccc4N(C)C)CC3)c2c1` [Example 14, N-{2-cyclopropyl-4-[4-(2-dimethylamino-phenyl)-piperidin-1-yl]-quinazolin-6-yl}-N,N′,N′-trimethyl-ethane-1,2-diamine]: 2000 to 10000 nM.
Take `COc1ccccc1C1CCN(c2nc(C3(F)CC3)nc3ccc(N(C)CCO)cc23)CC1` [Example 15, 2-({2-(1-Fluoro-cyclopropyl)-4-[4-(2-methoxy-phenyl)-piperidin-1-yl]-quinazolin-6-yl}-methyl-amino)-ethanol]: the EC50 is less than 500 nM.
Under `COCCN(C)c1ccc2nc(C3(F)CC3)nc(N3CCC(c4ccccc4OC)CC3)c2c1` [Example 16, {2-(1-fluoro-cyclopropyl)-4-[4-(2-methoxy-phenyl)-piperidin-1-yl]-quinazolin-6-yl}-(2-methoxy-ethyl)-methyl-amine] stands 500 to 2000 nM; under `COc1ccccc1C1CCN(c2nc(C3(F)CC3)nc3ccc(N(C)CCN4CCOCC4)cc23)CC1` [Example 17, {2-(1-fluoro-cyclopropyl)-4-[4-(2-methoxy-phenyl)-piperidin-1-yl]-quinazolin-6-yl}-methyl-(2-morpholin-4-yl-ethyl)-amine], 500 to 2000 nM.
The same measure for `COc1ccccc1C1CCN(c2nc(C3(F)CC3)nc3ccc(N(C)C)cc23)CC1` [Example 18, {2-(1-fluoro-cyclopropyl)-4-[4-(2-methoxy-phenyl)-piperidin-1-yl]-quinazolin-6-yl}-dimethyl-amine]: 500 to 2000 nM; for `COc1ccccc1C1CCN(c2nc(C3(N(C)C)CC3)nc3ccc(N(C)C)cc23)CC1` [Example 19, {2-(1-dimethylamino-cyclopropyl)-4-[4-(2-methoxy-phenyl)-piperidin-1-yl]-quinazolin-6-yl}-dimethyl-amine]: greater than 10000 nM; for `CCCN(C)c1ccc2nc(C3(F)CC3)nc(N3CCC(c4ccccc4OC)CC3)c2c1` [Example 20, {2-(1-fluoro-cyclopropyl)-4-[4-(2-methoxy-phenyl)-piperidin-1-yl]-quinazolin-6-yl}-methyl-propyl-amine]: 500 to 2000 nM.
Take `CCCN(C)c1ccc2nc(C3(N(C)CCC)CC3)nc(N3CCC(c4ccccc4OC)CC3)c2c1` [Example 21, {4-[4-(2-methoxy-phenyl)-piperidin-1-yl]-2-[1-(methyl-propyl-amino)-cyclopropyl]-quinazolin-6-yl}-methyl-propyl-amine]: the half-maximal effective concentration (EC50) is greater than 10000 nM.
